Measurements from publication PMC4434909, “In vitro properties of designed antimicrobial peptides that exhibit potent antipneumococcal activity and produces synergism in combination with penicillin” (Scientific Reports, 2015).
Like-named read-outs stand apart in the source and are kept apart here. Where no end group is shown, it is not given here.

Tests used:
PSSP = assay type: cell-based, Streptococcus pneumoniae
Procedure: (§1) This assay was performed to evaluate the killing kinetics of peptides. One PRSP, PISP, and PSSP isolate were each grown and prepared to 5 × 10^6 CFU/ml. Each isolate in CAMHB was challenged with peptides at two times the respective MIC values. At the indicated time intervals (0, 30, 60, 120, 150, 180, 210, and 240 min; “0” indicate pretreatment), 10 μl of suspension was removed and immediately serially diluted in cold phosphate-buffered saline to arrest further reaction before spread-plated on MHA to obtain viable colony counts. The percentage cell recovered was calculated by dividing the surviving CFU of the treated cells over the surviving CFU of the untreated control cells at the respective time points. Results were pooled from three independent experiments and expressed as mean ± standard deviation (SD).

PRSP, PISP, and PSSP = assay type: cell-based, Streptococcus pneumoniae; details: for CFU recovered (viability), all three groups of pneumococci: 5 × 10^6 CFU/ml in CAMHB, plate count, relative to untreated control
Procedure: as §1

[1] = average of PRSP, PISP and PSSP, 30 min post treatment, 2× MIC

Row | Substance | difference in killing kinetics over PEN, PSSP (PSSP; 30 min post treatment, 2× MIC) [%] | difference in killing kinetics over PEN, average (PRSP, PISP, and PSSP; [1]) [%] | difference in killing kinetics over PEN, PSSP (PSSP; 2) [%] | difference in killing kinetics over PEN, average (PRSP, PISP, and PSSP; 2) [%] | CFU recovered (viability), all three groups of pneumococci (PRSP, PISP, and PSSP; 30 min post treatment, 2× MIC) [%] | difference between lowest and highest detectable MIC against S. pneumoniae [fold]
1 | GLFDIWKKWRWRR-NH2 [DM4] | 30.5 | 42.4 | – | – | – | –
2 | GLFDIWKKLRWRR-NH2 [DM5] | – | – | 36.5 | 44.4 | – | –
3 | GLFDIWKWWRWRR-NH2 [DM3] | – | – | 57.7 | 64.6 | < 6.0 | –
4 | GLFDKWAWWRWRR-NH2 [DM1] | 38.4 | 48.5 | – | – | – | –
5 | GLFDIWAWWRWRR-NH2 [DM2] | – | – | 54.4 | 61.3 | < 6.0 | 32
